{"source": "patent US20080227684A1", "about": "“Small Molecule Inhibitors of PDZ Interactions” (priority 2005, published 2008)", "assay_in_all_cases": "Matrix modified G-assay, small molecule competition titration", "key": {"Shank 1": {"target": "T1, Shank 1 (Homo sapiens, UniProt Q9Y566)", "T1 construct": "made in house", "T1 sequence (Q9Y566 663-757 limits assumed)": "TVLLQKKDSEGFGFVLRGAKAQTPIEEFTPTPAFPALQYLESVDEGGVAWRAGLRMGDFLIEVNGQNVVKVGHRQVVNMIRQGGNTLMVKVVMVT", "conditions": "competition with biotinylated PL peptide at GST-PDZ fusion protein; read-out: IC50 Shank 1 (relative binding affinity by titration analysis)", "description": "(§1) Small Molecule Competition Assay. The reagents, supplies and protocol are as follows:\n(§2) Reagents and Supplies: • (1) Nunc Maxisorp 96 well Immuno-plates • (2) PBS pH 7.4 (phosphate buffered saline, 8 g NaCl, 0.29 g KCl, 1.44 g Na2HPO4, 0.24 g • (3) KH2PO4, add H2O to 1 L and pH 7.4; 0.2μ filter) • (4) Assay Buffer: 2% BSA in PBS (20 g of BSA per liter PBS), ICN Biomedicals • (5) Goat anti-GST polyclonal antibody, stock 5 mg/ml, stored at 4° C., (Amersham Pharmacia); Diluted 1:1000 in PBS to a final concentration 5 μg/ml • (6) HRP-Streptavidin, 2.5 mg/2 ml stock stored @ 4° C., Zymed,- dilute 1:2000 into Assay buffer, final [0.5 μg/ml] • (7) Biotinylated peptides (from Anaspec, stored in −20° C. freezer) • (8) GST-PRISM proteins (stock stored @ −80° C., after 1st thaw store in −10° C. freezer) • (9) TMB (3,3′,5,5′, teramethylbensidine), ready to use • (10) 0.18M H2SO4 • (11) 12-w multichannel pipettor • (12) 200 μl LTS tips • (13) 50 ml reagent reservoirs • (14) 50 polypropylene conical tubes • (15) 15 ml polypropylene round-bottom tubes • (16) 1.5 ml microtubes • (17) Molecular Devices microplate reader (450 nm filters) • (18) SoftMax Pro software • (19) Assay buffer (1×PBS, 0.01% Triton X-100)\n(§3) Protocol. The wells of eighteen to twenty 96-well plates were coated with 100 μl of 5 μg/ml anti-GST antibody (in each well), and left overnight at 4° C. The plates were then emptied by inverting and tapped dry on paper towels. 200 μl of blocking buffer (1×PBS/2% BSA) was added to each well and the plates were left for 1-2 hrs at room temperature. […] GST-PDZ fusion proteins were diluted to a final concentration of 5 μg/ml in 1×PBS/2% BSA and 50 μl was added to each well. After incubating for 1-2 hours at 4° C. excess unbound fusion protein was removed by washing, i.e., using the automatic plate washer (3× with room temperature 1×PBS).\n(§4) PDZ ligand peptides, small molecule test compounds, and HRP were prepared in Assay Buffer as follows: • Biotinylated PDZ ligand synthetic peptides were prepared in one-quarter final volume, i.e., at 4× final concentration; • Steptavidin-HRP conjugate (Zymed) was diluted (1:500) in one-quarter final volume, i.e., at 4× final concentration; • Biotinylated peptides and Streptavidin-HRP were then mixed together, and incubated for 20 min at room temperature to form a signal generating peptide ligand complex; • While the peptide/HRP mix was incubating, test compound dilutions were prepared in half the final volume, i.e., at 2× final concentration; and, • Immediately before adding the final peptide ligand complex mixture to the plate, the drug titration was added to give a mixture with 1× concentrations and the final correct total volume. The signal generating peptide ligand/test compound mixtures were then added to each well of the plates to give 50 μl per well and the time of each addition was recorded. The plates were then incubated at room temperature, after the last peptide had been added, for exactly 30 min. After incubation, the plates were washed using the automatic plate washer (7× with room temperature 1×PBS). To detect the signal generating peptide ligand TMB substrate (for HRP) was added to each well of the plates at 100 μl per well and the time of TMB addition was recorded. The plates were then incubated in the dark at room temperature for a maximum of 30 min. The calorimetric reaction was then stopped using 100 μl of 0.18M H2SO4 30 minutes after adding TMB. The signal in each well of the plates were then determined by measuring the optical density at 450 nm.\n(§5) The relative binding affinities of the compounds in FIG. 2A, and other, small molecule inhibitors were determined by titrating the compounds in the same competitive binding assay."}, "Magi1 d1": {"target": "T2, Magi1 d1 (Homo sapiens, UniProt Q96QZ7)", "T2 construct": "made in house", "T2 sequence (Q96QZ7 472-554 limits assumed)": "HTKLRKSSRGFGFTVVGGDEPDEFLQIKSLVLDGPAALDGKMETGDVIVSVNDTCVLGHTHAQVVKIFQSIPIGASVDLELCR", "conditions": "competition with biotinylated PL peptide at GST-PDZ fusion protein; read-out: IC50 Magi1 d1 (relative binding affinity by titration analysis)", "description": "as §1, §2, §3, §4, §5"}, "Tip1": {"target": "T3, Tip1 (Homo sapiens, UniProt O14907)", "T3 construct": "made in house", "T3 sequence (O14907 15-112 limits assumed)": "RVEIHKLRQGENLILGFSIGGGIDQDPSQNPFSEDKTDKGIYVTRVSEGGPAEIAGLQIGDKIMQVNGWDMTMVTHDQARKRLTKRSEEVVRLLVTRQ", "conditions": "competition with biotinylated PL peptide at GST-PDZ fusion protein; read-out: IC50 Tip1 (relative binding affinity by titration analysis)", "description": "as §1, §2, §3, §4, §5"}, "PSD95 d1": {"target": "T4, PSD95 d1 (Homo sapiens, UniProt P78352)", "T4 construct": "made in house", "conditions": "competition with biotinylated PL peptide at GST-PDZ fusion protein; read-out: IC50 PSD95 d1 (relative binding affinity by titration analysis)", "description": "as §1, §2, §3, §4, §5"}, "PSD95 d3": {"target": "T5, PSD95 d3 (Homo sapiens, UniProt P78352)", "T5 construct": "made in house", "conditions": "competition with biotinylated PL peptide at GST-PDZ fusion protein; read-out: IC50 PSD95 d3 (relative binding affinity by titration analysis)", "description": "as §1, §2, §3, §4, §5"}, "PSD95 d2": {"target": "T6, PSD95 d2 (Homo sapiens, UniProt P78352)", "T6 construct": "made in house", "conditions": "competition with biotinylated PL peptide at GST-PDZ fusion protein; read-out: IC50 PSD95 d2 (relative binding affinity by titration analysis)", "description": "as §1, §2, §3, §4, §5"}}}
{"smiles": "CCOc1ccc(NS(=O)(=O)c2cccc(C(=O)Nc3ccccc3C(=O)O)c2)cc1", "note": "[Compound 3019-0348]", "values": [{"measurement": "IC50", "setting": "Shank 1", "value": "> 250", "unit": "µM"}, {"measurement": "IC50", "setting": "Magi1 d1", "value": "> 250", "unit": "µM"}, {"measurement": "IC50", "setting": "Tip1", "value": "> 250", "unit": "µM"}, {"measurement": "IC50", "setting": "PSD95 d1", "value": "> 250", "unit": "µM"}, {"measurement": "IC50", "setting": "PSD95 d3", "value": "> 250", "unit": "µM"}, {"measurement": "IC50", "setting": "PSD95 d2", "value": "> 250", "unit": "µM"}]}
{"smiles": "O=C(Nc1ccccc1C(=O)O)c1cccc(NC(=O)C(c2ccccc2)c2ccccc2)c1", "note": "[Compound 3289-2331]", "values": [{"measurement": "IC50", "setting": "Shank 1", "value": "> 250", "unit": "µM"}, {"measurement": "IC50", "setting": "Magi1 d1", "value": 130, "unit": "µM"}, {"measurement": "IC50", "setting": "Tip1", "value": "> 250", "unit": "µM"}, {"measurement": "IC50", "setting": "PSD95 d1", "value": "> 250", "unit": "µM"}, {"measurement": "IC50", "setting": "PSD95 d3", "value": "> 250", "unit": "µM"}, {"measurement": "IC50", "setting": "PSD95 d2", "value": "> 250", "unit": "µM"}]}
{"smiles": "CCOc1ccc(NS(=O)(=O)c2cc(C(=O)Nc3ccccc3C(=O)O)ccc2C)cc1", "note": "[Compound 3558-0042]", "values": [{"measurement": "IC50", "setting": "Shank 1", "value": "> 250", "unit": "µM"}, {"measurement": "IC50", "setting": "Magi1 d1", "value": "> 250", "unit": "µM"}, {"measurement": "IC50", "setting": "Tip1", "value": "> 250", "unit": "µM"}, {"measurement": "IC50", "setting": "PSD95 d1", "value": "> 250", "unit": "µM"}, {"measurement": "IC50", "setting": "PSD95 d3", "value": "> 250", "unit": "µM"}, {"measurement": "IC50", "setting": "PSD95 d2", "value": "> 250", "unit": "µM"}]}
{"smiles": "Cc1ccc([N+](=O)[O-])cc1NC(=O)c1cc(S(=O)(=O)Nc2cccc(C(=O)O)c2)c(Cl)cc1Cl", "note": "[Compound 8009-5039]", "values": [{"measurement": "IC50", "setting": "Shank 1", "value": "> 250", "unit": "µM"}, {"measurement": "IC50", "setting": "Magi1 d1", "value": "> 250", "unit": "µM"}, {"measurement": "IC50", "setting": "Tip1", "value": "> 250", "unit": "µM"}, {"measurement": "IC50", "setting": "PSD95 d1", "value": "> 250", "unit": "µM"}, {"measurement": "IC50", "setting": "PSD95 d3", "value": "> 250", "unit": "µM"}, {"measurement": "IC50", "setting": "PSD95 d2", "value": "> 250", "unit": "µM"}]}
{"smiles": "CC(=O)N1CCc2cc(S(=O)(=O)NC(Cc3ccccc3)C(=O)Nc3ccccc3C(=O)O)ccc21", "note": "(stereo not drawn) [Compound C450-0454]", "values": [{"measurement": "IC50", "setting": "Shank 1", "value": "> 250", "unit": "µM"}, {"measurement": "IC50", "setting": "Magi1 d1", "value": "> 250", "unit": "µM"}, {"measurement": "IC50", "setting": "Tip1", "value": "> 250", "unit": "µM"}, {"measurement": "IC50", "setting": "PSD95 d1", "value": 206, "unit": "µM"}, {"measurement": "IC50", "setting": "PSD95 d3", "value": "> 250", "unit": "µM"}, {"measurement": "IC50", "setting": "PSD95 d2", "value": "> 250", "unit": "µM"}]}
{"smiles": "COc1cccc(-c2nc3c(c(SCC(=O)Nc4cccc(C(=O)O)c4)n2)Cc2c(CO)cnc(C)c2O3)c1", "note": "[Compound E544-0129]", "values": [{"measurement": "IC50", "setting": "Shank 1", "value": 7.59, "unit": "µM"}, {"measurement": "IC50", "setting": "Magi1 d1", "value": 60.8, "unit": "µM"}, {"measurement": "IC50", "setting": "Tip1", "value": "> 250", "unit": "µM"}, {"measurement": "IC50", "setting": "PSD95 d1", "value": 2.5, "unit": "µM"}, {"measurement": "IC50", "setting": "PSD95 d3", "value": 3.47, "unit": "µM"}, {"measurement": "IC50", "setting": "PSD95 d2", "value": 4.98, "unit": "µM"}]}
{"smiles": "O=C(NCCO)C(=O)Nc1ccccc1C(=O)O", "note": "[MC 247808]", "values": [{"measurement": "IC50", "setting": "Shank 1", "value": "> 250", "unit": "µM"}, {"measurement": "IC50", "setting": "Magi1 d1", "value": "> 250", "unit": "µM"}, {"measurement": "IC50", "setting": "Tip1", "value": "> 250", "unit": "µM"}, {"measurement": "IC50", "setting": "PSD95 d1", "value": "> 250", "unit": "µM"}, {"measurement": "IC50", "setting": "PSD95 d3", "value": "> 250", "unit": "µM"}, {"measurement": "IC50", "setting": "PSD95 d2", "value": 221, "unit": "µM"}]}
